Data reported in US20040039031A1, “Novel pharmaceutical compositions having an antidiabetic action, and process for their preparation” (priority 2000, published 2004).

Columns and labels:
NIDD STZ rats = assay: Streptozotocin-induced NIDD diabetic rats, eight-day oral treatment, plasma biological parameters; type: in vivo, male Wistar rats; conditions: for Glycaemia at D29 as percent of D21: values at D21 taken as 100%
Experimental: 40 male Wistar rats (Charles River, Saint Aubin les Elbeuf, France), with an average weight of 280 g, are used in this experiment. The animals are housed for one week in a standardised animal house, the following parameters of which are controlled: The forty rats are made diabetic by IP administration of 50 mg/kg of streptozotocin dissolved in physiological saline (a single administration). […] For each rat, 100 μl of blood are collected by venepuncture in a caudal vein, onto heparin, at time D0 (before the administration of STZ), at time D21 (21 days after STZ, before the treatments) and at D29 (after eight days of treatment). The samples are immediately centrifuged (10 minutes at 4000 rpm) and the plasma is separated from the blood cells. The samples are frozen until the time of determination of the biological parameters. After thawing the plasma samples, the above parameters are determined by enzymatic methods, using a COBAS automated machine (Roche). The glycaemia is measured by the hexokinase method; the cholesterol by the enzymatic final Randox point method; the triglycerides by the GPO-PAP method; the lactic acid by the lactic dehydrogenase method. The circulating insulin is measured by radioimmunoassay using CEA kits. The efficacy of the treatments is evaluated between […] by a t test adapted to paired series (for each rat, the value at D21 relative to D29 serves as the control).

NIDD rats, of STZ type = assay: Earlier study of glibenclamide 0.5 mg/kg daily in NIDD rats of STZ type; type: in vivo; conditions: daily dose of 0.5 mg/kg
[1] = glibenclamide 1 mg/kg/day group, D0 (before STZ)
[2] = glibenclamide 1 mg/kg/day group, D21 (21 days after STZ, before treatment)
[3] = glibenclamide 1 mg/kg/day orally in two doses, D29 (after eight days of treatment)
[4] = glibenclamide 2 mg/kg/day group, D0 (before STZ)
[5] = glibenclamide 2 mg/kg/day group, D21 (21 days after STZ, before treatment)
[6] = glibenclamide 2 mg/kg/day orally in two doses, D29 (after eight days of treatment)
[7] = glibenclamide higher dose 2 mg/kg/day, D29 vs D21
[8] = glibenclamide low dose 1 mg/kg/day, D29 vs D21
[9] = metformin 30 mg/kg/day group, D0 (before STZ)
[10] = metformin 30 mg/kg/day group, D21 (21 days after STZ, before treatment)
[11] = metformin (hydrochloride) 30 mg/kg/day orally in two doses, D29 (after eight days of treatment)

**Q.** Which results are given for glibenclamide?
**A.** Glycaemia at D29 as percent of D21 (NIDD STZ rats; Glibenclamide 2 mg/kg/day): 93.49 +/− 1.15%; Cholesterol (NIDD STZ rats; [1]): 1.03 +/− 0.04 mM/l; Glycaemia (NIDD STZ rats; [1]): 6.39 +/− 0.17 mM/l; Insulinaemia (NIDD STZ rats; [1]): 12.8 +/− 0.8 μU/ml; Lactates (NIDD STZ rats; [1]): 2.19 +/− 0.07 mM/l; Triglycerides (NIDD STZ rats; [1]): 0.87 +/− 0.05 mM/l; Cholesterol (NIDD STZ rats; [2]): 1.65 +/− 0.08 mM/l; Glycaemia (NIDD STZ rats; [2]): 14.22 +/− 0.65 mM/l; Insulinaemia (NIDD STZ rats; [2]): 16.7 +/− 0.8 μU/ml; Lactates (NIDD STZ rats; [2]): 2.59 +/− 0.10 mM/l; Triglycerides (NIDD STZ rats; [2]): 1.04 +/− 0.10 mM/l; Cholesterol (NIDD STZ rats; [3]): 1.42 +/− 0.08 mM/l; Glycaemia (NIDD STZ rats; [3]): 14.66 +/− 0.47 mM/l; Insulinaemia (NIDD STZ rats; [3]): **1.92 +/− 0.8 μU/ml; Lactates (NIDD STZ rats; [3]): **1.33 +/− 0.15 mM/l; Triglycerides (NIDD STZ rats; [3]): 1.04 +/− 0.10 mM/l; Cholesterol (NIDD STZ rats; [4]): 1.04 +/− 0.02 mM/l; Glycaemia (NIDD STZ rats; [4]): 6.49 +/− 0.13 mM/l; Insulinaemia (NIDD STZ rats; [4]): 12.7 +/− 0.6 μU/ml; Lactates (NIDD STZ rats; [4]): 2.33 +/− 0.12 mM/l; Triglycerides (NIDD STZ rats; [4]): 0.88 +/− 0.06 mM/l; Cholesterol (NIDD STZ rats; [5]): 1.49 +/− 0.04 mM/l; Glycaemia (NIDD STZ rats; [5]): 14.66 +/− 0.73 mM/l; Insulinaemia (NIDD STZ rats; [5]): 17.0 +/− 1.0 μU/ml; Lactates (NIDD STZ rats; [5]): 2.67 +/− 0.17 mM/l; Triglycerides (NIDD STZ rats; [5]): 1.01 +/− 0.05 mM/l; Cholesterol (NIDD STZ rats; [6]): 1.52 +/− 0.06 mM/l; Glycaemia (NIDD STZ rats; [6]): **13.70 +/− 0.66 mM/l; Insulinaemia (NIDD STZ rats; [6]): **21.0 +/− 1.4 μU/ml; Lactates (NIDD STZ rats; [6]): **1.38 +/− 0.13 mM/l; Triglycerides (NIDD STZ rats; [6]): 0.93 +/− 0.04 mM/l; Glycaemia (NIDD STZ rats; glibenclamide 2 mg/kg/day orally in two doses, D29 (after eight days of treatment), listed as glibenclamide): 13.70 +/− 0.66 mM/l; Decrease in glycaemia (NIDD STZ rats; glibenclamide alone 2 mg/kg/day, D29 vs D21): 6.51%; Effect on insulinaemia (NIDD STZ rats; [7]): still higher on average; Effect on lactate levels (NIDD STZ rats; [7]): significantly reduced; Effect on glycaemia (NIDD STZ rats; glibenclamide higher dose 2 mg/kg/day, D29 vs D21, paired t test): significantly decreases; Effect on glycaemia (NIDD STZ rats; [8]): does not modify; Effect on insulinaemia (NIDD STZ rats; [8]): significant increase; Effect on level of circulating lactates (NIDD STZ rats; [8]): decrease; Minimum active dose (NIDD STZ rats; orally in two doses, eight days, NIDD STZ rats): 2 mg/kg/day; Activity of daily dose (NIDD rats, of STZ type): inactive

**Q.** Which results are given for `CN(C)C(=N)N=C(N)N` [Metformin, metformin]?
**A.** glycaemia at D29 (% of D21) (NIDD STZ rats; Metformin 30 mg/kg/day): 86%; Glycaemia at D29 as percent of D21 (NIDD STZ rats; Metformin 30 mg/kg/day): 86.03 +/− 4.29%; Cholesterol (NIDD STZ rats; [9]): 1.00 +/− 0.07 mM/l; Glycaemia (NIDD STZ rats; [9]): 6.38 +/− 0.23 mM/l; Insulinaemia (NIDD STZ rats; [9]): 12.8 +/− 0.2 μU/ml; Lactates (NIDD STZ rats; [9]): 2.47 +/− 0.15 mM/l; Triglycerides (NIDD STZ rats; [9]): 0.96 +/− 0.12 mM/l; Cholesterol (NIDD STZ rats; [10]): 1.57 +/− 0.08 mM/l; Glycaemia (NIDD STZ rats; [10]): 14.41 +/− 0.36 mM/l; Lactates (NIDD STZ rats; [10]): 2.53 +/− 0.09 mM/l; Triglycerides (NIDD STZ rats; [10]): 1.05 +/− 0.03 mM/l; Effect on lactates (NIDD STZ rats; metformin 30 mg/kg/day, eight days): tendency to increase; Cholesterol (NIDD STZ rats; [11]): 1.48 +/− 0.06 mM/l; Glycaemia (NIDD STZ rats; [11]): **12.35 +/− 0.49 mM/l; Insulinaemia (NIDD STZ rats; [11]): 17.3 +/− 0.7 μU/ml; Lactates (NIDD STZ rats; [11]): *2.70 +/− 0.11 mM/l; Triglycerides (NIDD STZ rats; [11]): 0.96 +/− 0.05 mM/l; Decrease in glycaemia (NIDD STZ rats; metformin alone 30 mg/kg/day, D29 vs D21): 13.7%
